How the values were obtained:
human Edg-1(S1P1) [1] = biological target: T1, human Edg-1(S1P1) (Homo sapiens, UniProt P21453); experiment: Cell system binding test: inhibition of [3H]-S1P binding to Edg-1(S1P1) gene transferred HEK-293 cells; details: 10 μM compound, [3H]-S1P 10 nM, read-out: Cell system binding test % inhibition (10 μM)
T1 construct: expressed in transfected cells; host or cells: HEK-293

human Edg-1(S1P1) [2] = biological target: T1, human Edg-1(S1P1); experiment: Membrane system binding test: inhibition of [33P]-S1P binding to the membrane fraction of Edg-1(S1P1) gene transferred HEK-293 cells; details: 10 μM compound; [33P]-S1P 0.1 nM; membrane fraction of Edg-1(S1P1) gene transferred HEK-293 cells; read-out: Membrane system binding test % inhibition (10 μM)
How it was run: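 Membranes from HEK-293 cells transfected with Edg-1(S1P1) incubated 1 h at 30 °C with 0.1 nM [^33P]-S1P and compound at 10^−5 M (0.1% DMSO), pH 7.4 buffer with fatty acid-free BSA. Filter-bound radioactivity counted; inhibition rate calculated against no-compound binding, with untransfected-cell background subtracted.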

T1 sequence (P21453 whole entry): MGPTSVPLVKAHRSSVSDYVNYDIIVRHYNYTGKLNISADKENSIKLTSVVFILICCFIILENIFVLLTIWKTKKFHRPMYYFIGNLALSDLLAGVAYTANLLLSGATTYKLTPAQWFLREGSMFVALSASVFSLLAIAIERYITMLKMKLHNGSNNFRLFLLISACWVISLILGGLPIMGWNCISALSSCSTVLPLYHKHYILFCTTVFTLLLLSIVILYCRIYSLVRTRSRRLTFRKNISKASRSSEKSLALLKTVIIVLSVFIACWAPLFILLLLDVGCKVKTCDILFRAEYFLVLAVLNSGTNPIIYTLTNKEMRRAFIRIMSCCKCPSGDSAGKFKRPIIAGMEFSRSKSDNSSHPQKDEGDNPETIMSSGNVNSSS

Structure (SMILES)	inhibition at 10 µM (human Edg-1(S1P1) [1])	inhibition at 10 µM (human Edg-1(S1P1) [2])
CCn1c(OC)nnc1[C@@H](C)NS(=O)(=O)c1ccc(OC)cc1 [Compound 226]	92.3%	42.4%
CCn1c(OC)nnc1[C@@H](C)NS(C)(=O)=O [Compound 227]	92.6%	52%
CCn1c(OC)nnc1[C@@H](C)NS(=O)(=O)c1cccc2ccccc12 [Compound 229]	102%	61.1%
CCn1c(OC)nnc1[C@@H](C)NS(=O)(=O)c1ccc2ccccc2c1 [Compound 230]	103%	102%
CCn1c(OC)nnc1[C@@H](C)NS(=O)(=O)c1ccccc1[N+](=O)[O-] [Compound 231]	96.6%	40.3%
CCn1c(OC)nnc1[C@@H](C)NS(=O)(=O)c1ccc([N+](=O)[O-])cc1 [Compound 233]	99.8%	93.2%
CCn1c(OC)nnc1[C@@H](C)NS(=O)(=O)CCc1cccc2ccccc12 [Compound 235]	111%	63.8%
CCn1c(OC)nnc1[C@@H](C)NS(=O)(=O)c1c(F)c(F)c(F)c(F)c1F [Compound 237]	95.4%	52.5%
CCn1c(OC)nnc1[C@@H](C)NS(=O)(=O)c1ccc(I)cc1 [Compound 238]	99.1%	79.1%
CCn1c(OC)nnc1[C@@H](C)NS(=O)(=O)c1cccc2cccnc12 [Compound 240]	93.4%	70.3%
CCn1c(OC)nnc1[C@@H](C)NS(=O)(=O)/C=C/c1ccccc1 [Compound 241]	102%	80.5%
CCn1c(OC)nnc1[C@@H](C)NS(=O)(=O)c1cccs1 [Compound 242]	100%	49.9%
CCn1c(OC)nnc1[C@@H](C)NS(=O)(=O)c1ccc(C)cc1 [Compound 243]	102%	66%
CCn1c(OC)nnc1[C@@H](C)NS(=O)(=O)c1cccc(C(F)(F)F)c1 [Compound 245]	96.8%	87.7%
CCn1c(OC)nnc1[C@@H](C)NS(=O)(=O)c1ccccc1C [Compound 246]	98.1%	61.8%
CCn1c(OC)nnc1[C@@H](C)NS(=O)(=O)c1ccc(OC(F)(F)F)cc1 [Compound 247]	95.3%	52%
CCn1c(OC)nnc1[C@@H](C)NS(=O)(=O)c1cccc(C)c1 [Compound 248]	99.5%	83.3%

Structure (SMILES)	inhibition at 10 µM (human Edg-1(S1P1) [1])	inhibition at 10 µM (human Edg-1(S1P1) [2])
CCn1c(OC)nnc1[C@@H](C)NS(=O)(=O)c1ccc(C(F)(F)F)cc1 [Compound 249]	101%	86.3%
CCn1c(OC)nnc1[C@@H](C)NS(=O)(=O)c1cc(S(=O)(=O)c2ccccc2)cs1 [Compound 250]	88.7%	42.9%
CCn1c(OC)nnc1[C@@H](C)NS(=O)(=O)c1cnc(Cl)c(Br)c1 [Compound 251]	102%	106%
CCn1c(OC)nnc1[C@@H](C)NS(=O)(=O)c1cc(Br)c(Cl)s1 [Compound 252]	103%	100%
CCn1c(OC)nnc1[C@@H](C)NS(=O)(=O)c1ccsc1C(=O)OC [Compound 255]	96.3%	48.3%
CCn1c(OC)nnc1[C@@H](C)NS(=O)(=O)c1cc(C(=O)OC)c(C)o1 [Compound 257]	95.7%	58.1%
CCn1c(OC)nnc1[C@@H](C)NS(=O)(=O)c1ccccc1C(F)(F)F [Compound 260]	89.4%	46.9%
CCn1c(OC)nnc1[C@@H](C)NS(=O)(=O)c1ccc(-c2ccccc2)cc1 [Compound 261]	94.5%	56.7%
CCCc1ccc(S(=O)(=O)N[C@H](C)c2nnc(OC)n2CC)cc1 [Compound 262]	96.5%	68.8%
CCn1c(OC)nnc1[C@@H](C)NS(=O)(=O)c1ccc(C)cc1OC [Compound 264]	95.8%	42.7%
CCn1c(OC)nnc1[C@@H](C)NS(=O)(=O)c1cc(C(F)(F)F)cc(C(F)(F)F)c1 [Compound 265]	98.2%	69.5%
CCn1c(OC)nnc1[C@@H](C)NS(=O)(=O)c1cc(Cl)cc(Cl)c1 [Compound 266]	97%	83%
CCn1c(OC)nnc1[C@@H](C)NS(=O)(=O)c1cccc(Cl)c1C [Compound 267]	99.9%	89.4%
CCn1c(OC)nnc1[C@@H](C)NS(=O)(=O)c1ccc(F)c(Cl)c1 [Compound 268]	98.7%	88.6%
CCn1c(OC)nnc1[C@@H](C)NS(=O)(=O)c1cccc(OC)c1 [Compound 269]	96.3%	74.5%
CCn1c(OC)nnc1[C@@H](C)NS(=O)(=O)c1cc(F)c(Br)cc1F [Compound 270]	94.8%	61.3%

Continued, values first:

inhibition at 10 µM (human Edg-1(S1P1) [1])	inhibition at 10 µM (human Edg-1(S1P1) [2])	Structure (SMILES)
102%	94.3%	CCn1c(OC)nnc1[C@@H](C)NS(=O)(=O)c1ccc(Br)c(Br)c1 [Compound 272]
94.3%	68.4%	CCn1c(OC)nnc1[C@@H](C)NS(=O)(=O)c1cc(C)ccc1OC [Compound 273]
102%	104%	CCn1c(OC)nnc1[C@@H](C)NS(=O)(=O)c1ccc(Cl)c(Cl)c1 [Compound 274]
99.4%	71.9%	CCn1c(OC)nnc1[C@@H](C)NS(=O)(=O)c1cccc(OC(F)(F)F)c1 [Compound 275]
99.7%	51.4%	CCn1c(OC)nnc1[C@@H](C)NS(=O)(=O)c1ccc(C#N)cc1 [Compound 277]
92.7%	48.1%	CCn1c(OC)nnc1[C@@H](C)NS(=O)(=O)c1ccc(C(C)C)cc1 [Compound 282]
88%	41.5%	CCCCCc1ccc(S(=O)(=O)N[C@H](C)c2nnc(OC)n2CC)cc1 [Compound 284]
97.1%	63.9%	CCn1c(OC)nnc1[C@@H](C)NS(=O)(=O)c1ccc(F)c(F)c1F [Compound 285]
97.5%	57.4%	CCn1c(OC)nnc1[C@@H](C)NS(=O)(=O)c1cc(F)ccc1F [Compound 286]
100%	80.1%	CCn1c(OC)nnc1[C@@H](C)NS(=O)(=O)c1ccc(F)c(F)c1 [Compound 287]
103%	54.9%	CCn1c(OC)nnc1[C@@H](C)NS(=O)(=O)c1ccc(Br)cc1F [Compound 288]
102%	63.6%	CCn1c(OC)nnc1[C@@H](C)NS(=O)(=O)c1cc(F)c(Cl)cc1F [Compound 289]
96.7%	51.4%	CCn1c(OC)nnc1[C@@H](C)NS(=O)(=O)Cc1cc(Cl)cc(Cl)c1 [Compound 292]
94.5%	44.4%	CCn1c(OC)nnc1[C@@H](C)NS(=O)(=O)c1cccc(F)c1 [Compound 299]
98.7%	57.7%	CCn1c(OC)nnc1[C@@H](C)NS(=O)(=O)c1cc(F)c(F)cc1F [Compound 302]
97.7%	56.1%	CCn1c(OC)nnc1[C@@H](C)NS(=O)(=O)c1cc(Br)ccc1Br [Compound 303]
94.5%	62.8%	CCn1c(OC)nnc1[C@@H](C)NS(=O)(=O)c1ccc(Br)cc1Br [Compound 306]
96.2%	68%	CCn1c(OC)nnc1[C@@H](C)NS(=O)(=O)c1ccc(F)c(C#N)c1 [Compound 307]
95.5%	68.1%	CCn1c(OC)nnc1[C@@H](C)NS(=O)(=O)c1cc(C)cc(C)c1 [Compound 308]
93.2%	46.5%	CCn1c(OC)nnc1[C@@H](C)NS(=O)(=O)c1ccc(OC(F)F)cc1 [Compound 309]
98.5%	78.8%	CCn1c(OC)nnc1[C@@H](C)NS(=O)(=O)c1cccc(OC(F)F)c1 [Compound 310]
97.6%	52.4%	CCn1c(OC)nnc1[C@@H](C)NS(=O)(=O)c1cc(F)cc(F)c1 [Compound 311]
95.9%	50.7%	CCn1c(OC)nnc1[C@@H](C)NS(=O)(=O)c1ccc(Cl)cc1F [Compound 312]
100%	93.2%	CCn1c(OC)nnc1[C@@H](C)NS(=O)(=O)c1cc(F)c(F)c(F)c1 [Compound 313]
102%	100%	CCn1c(OC)nnc1[C@@H](C)NS(=O)(=O)c1ccc(Br)c(C)c1 [Compound 314]
100%	85%	CCn1c(OC)nnc1[C@@H](C)NS(=O)(=O)c1ccc(C)c(F)c1 [Compound 315]
97.2%	95.8%	CCn1c(OC)nnc1[C@@H](C)NS(=O)(=O)c1ccc(Br)c(F)c1 [Compound 317]
93.4%	89.9%	CCn1c(OC)nnc1[C@@H](C)NS(=O)(=O)c1ccc(C)c(C)c1 [Compound 319]
93.5%	47.9%	CCn1c(OC)nnc1[C@@H](C)NS(=O)(=O)c1cc(C)ccc1F [Compound 320]
